Experimental findings from BindingDB's records for doi:10.1021/jm058013g (Universidad San Pablo Ceu, 2005) are described below.

What is called pIC50 is the negative decadic logarithm of the IC50, by convention in mol/L. Low readings indicate a high IC50, high ones a low IC50.

For the test, the target named is Cyclin-dependent kinase 1/G2/mitotic-specific cyclin-B (Marthasterias glacialis, UniProt P15206+Q9DGD3). Nature of the test: Kinase Inhibition Assay. The conditions noted are these: 30 °C.

pIC50: −log10 of the molar value.

Cyclin-dependent kinase 1/G2/mitotic-specific cyclin-B, sequence (Q9DGD3 whole entry): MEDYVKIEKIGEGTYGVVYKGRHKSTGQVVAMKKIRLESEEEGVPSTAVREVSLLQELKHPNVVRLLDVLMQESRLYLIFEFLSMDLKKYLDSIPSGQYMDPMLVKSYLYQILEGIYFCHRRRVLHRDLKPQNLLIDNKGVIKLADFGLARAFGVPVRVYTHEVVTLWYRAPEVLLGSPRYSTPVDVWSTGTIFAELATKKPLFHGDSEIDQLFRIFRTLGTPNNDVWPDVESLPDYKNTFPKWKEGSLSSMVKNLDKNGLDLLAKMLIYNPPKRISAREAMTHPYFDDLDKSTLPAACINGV
Cyclin-dependent kinase 1/G2/mitotic-specific cyclin-B, sequence (P15206 whole entry): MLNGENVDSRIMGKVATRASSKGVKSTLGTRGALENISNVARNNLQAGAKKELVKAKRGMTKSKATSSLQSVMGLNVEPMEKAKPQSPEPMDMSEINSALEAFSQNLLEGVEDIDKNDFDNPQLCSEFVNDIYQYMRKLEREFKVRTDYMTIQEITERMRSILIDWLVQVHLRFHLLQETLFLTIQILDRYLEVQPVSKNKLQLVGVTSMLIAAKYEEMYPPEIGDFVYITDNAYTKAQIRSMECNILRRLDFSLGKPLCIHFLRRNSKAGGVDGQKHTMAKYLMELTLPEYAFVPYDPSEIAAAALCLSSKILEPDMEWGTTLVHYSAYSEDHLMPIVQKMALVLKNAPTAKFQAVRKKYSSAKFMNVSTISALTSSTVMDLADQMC

With `CC(=O)n1nc(N)c2c(-c3ccccc3)c(-c3ccccc3)nnc21` [1-{3-amino-4,5-diphenyl-1H-pyrazolo[3,4-c]pyridazin-1-yl}ethan-1-one], the pIC50 was less than 4.30.
On to `Nc1nn(CCOCCO)c2nnc(-c3ccccc3)c(-c3ccccc3)c12` [2-[2-(3-Amino-4,5-diphenyl-1H-pyrazolo[3,4-c]pyridazin-1-yl)ethoxy]ethanol], for which the negative logarithm of the IC50 (pIC50) was less than 4.30.
Still for that read-out and setting: next, `Nc1nn(COCCO)c2nnc(-c3ccccc3)c(-c3ccccc3)c12` [2-[(3-Amino-4,5-diphenyl-1H-pyrazolo[3,4-c]pyridazin-1-yl)methoxy]ethanol]: less than 4.30.
On the same count and under the same terms, next, `CC(=O)Nc1nn(C(C)=O)c2nnc(-c3ccccc3)c(-c3ccccc3)c12` [3-Acetamido-1-acetyl-4,5-diphenyl-1H-pyrazolo[3,4-c]-pyridazine]: less than 4.30; `Nc1nn(Cc2ccccc2)c2nnc(-c3ccccc3)c(-c3ccccc3)c12` [3-Amino-1-benzyl-4,5-diphenyl-1H-pyrazolo[3,4-c]pyridazine]: less than 4.30.
In turn, `Nc1n[nH]c2nnc(-c3ccc(-c4ccccc4)cc3)c(-c3ccc(-c4ccccc4)cc3)c12` [3-Amino-4,5-bis(4-biphenyl)-1H-pyrazolo[3,4-c]pyridazine] showed a pIC50 (pH 7.2) of less than 4.30.
The compound `Nc1ccc(-c2nnc3[nH]nc(N)c3c2-c2ccc(N)cc2)cc1` [3-Amino-4,5-bis(p-aminophenyl)-1H-pyrazolo[3,4-c]-pyridazine] showed a pIC50 (pH 7.2) of less than 4.30.
For the setting “pH 7.2”, `COc1ccc(-c2nnc3[nH]nc(N)c3c2-c2ccc(OC)cc2)cc1` [3-Amino-4,5-bis(p-methoxyphenyl)-1H-pyrazolo[3,4-c]-pyridazine] showed a pIC50 of 4.82.
On the same count and under the same terms, next, `Nc1n[nH]c2nnc(-c3ccc(C(F)(F)F)cc3)c(-c3ccc(C(F)(F)F)cc3)c12` [3-Amino-4,5-bis(p-trifluoromethylphenyl)-1H-pyrazolo-[3,4-c]pyridazine]: less than 4.30.
Compound `CC/N=C(\S)Nc1[nH]nc2nnc(-c3ccco3)cc12` [3-ethyl-1-[5-(furan-2-yl)-1H-pyrazolo[3,4-c]pyridazin-3-yl]thiourea] gave a pIC50 of less than 4.30.
On to `Nc1n[nH]c2nnc(-c3ccc([N+](=O)[O-])cc3)c(-c3ccc([N+](=O)[O-])cc3)c12` [4,5-bis(4-nitrophenyl)-1H-pyrazolo[3,4-c]pyridazin-3-amine], for which the pIC50 (pH 7.2) is less than 4.30.
For `CC(C)(C)c1ccc(-c2nnc3[nH]nc(N)c3c2-c2ccc(C(C)(C)C)cc2)cc1` [4,5-bis(4-tert-butylphenyl)-1H-pyrazolo[3,4-c]pyridazin-3-amine], under “pH 7.2”, the negative logarithm of the IC50 (pIC50) is less than 4.30.
Same read-out and setting: in the case of `Nc1n[nH]c2nnc(-c3ccccn3)c(-c3ccccn3)c12` [4,5-bis(pyridin-2-yl)-1H-pyrazolo[3,4-c]pyridazin-3-amine] it was less than 4.30; in that of `Cc1n[nH]c2nnc(N)c-2c1C` [4,5-dimethyl-1H-pyrazolo[3,4-c]pyridazin-3-amine], less than 4.30.
In turn, `Oc1[nH]nc2nnc(-c3ccccc3)c(-c3ccccc3)c12` [4,5-diphenyl-1H-pyrazolo[3,4-c]pyridazin-3-ol] showed a negative logarithm of the IC50 (pIC50) of less than 4.30.
Under “pH 7.2”, `Nc1n[nH]c2nncc(-c3ccccc3)c12` [4-phenyl-1H-pyrazolo[3,4-c]pyridazin-3-amine] had a pIC50 of less than 4.30.
Where the note is “pH 7.2”, `Cc1n[nH]c2nnc(N)c-2c1-c1ccccc1` [5-methyl-4-phenyl-1H-pyrazolo[3,4-c]pyridazin-3-amine] gave a pIC50 of less than 4.30.
`Nc1n[nH]c2nnc3c4ccccc4c4ccccc4c3c12` [17,18,20,21-tetraazapentacyclo[12.7.0.0^{2,7}.0^{8,13}.0^{15,19}]henicosa-1(21),2,4,6,8,10,12,14,16,19-decaen-16-amine] gave a negative logarithm of the IC50 (pIC50) (pH 7.2) of less than 4.30.
Regarding `CC(=O)Nc1n[nH]c2nnc(-c3ccccc3)c(-c3ccccc3)c12` [N-{4,5-diphenyl-1H-pyrazolo[3,4-c]pyridazin-3-yl}acetamide], the pIC50 is less than 4.30.
Under “pH 7.2”, `Nc1n[nH]c2nnc(-c3ccccc3)cc12` [Pyrazolopyridazine deriv. 1n] had a pIC50 of 5.40.
